Source: PubChem BioAssay (NCI)
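Method: 48-hour compound exposure of cells in 96-well plates, five concentrations, linear interpolation of endpoints. Here, GI50 denotes the concentration required for 50% inhibition of growth. TGI is the concentration that stops growth completely.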

How the values were obtained:
Assay in all cases: NCI anticancer screen, dose series, 48 h
[1] = test system: CCRF-CEM leukemia
[2] = test system: DU-145 prostate
[3] = test system: M14 melanoma
[4] = test system: MALME-3M melanoma
[5] = test system: NCI/ADR-RES ovarian
[6] = test system: OVCAR-5 ovarian
[7] = test system: PC-3 prostate
[8] = test system: RXF 393 renal
[9] = test system: T-47D breast
[10] = test system: K-562 leukemia

SMILES | GI50 [1] | TGI [1] | GI50 [2] | TGI [2] | GI50 [3] | TGI [3] | GI50 [4] | TGI [4] | GI50 [5] | TGI [5] | GI50 [6] | TGI [6] | GI50 [7] | TGI [7] | GI50 [8] | TGI [8] | GI50 [9] | TGI [9] | GI50 [10] | TGI [10]
Cn1cc(-c2cnc3ccc(NC(=O)Nc4ccc(F)c(Br)c4)cc3n2)cn1 | 2.06 µM | 6.21 µM | 1.67 µM | 3.96 µM | 1.57 µM | 3.14 µM | 1.56 µM | 3.55 µM | 2.21 µM | 5.41 µM | 1.94 µM | 4.53 µM | 1.44 µM | 3.62 µM | 1.73 µM | 4.67 µM | 0.631 µM | 2.27 µM |  | 
Cn1c(N2NC(=O)C(N=Nc3ccc(S(N)(=O)=O)cc3)C2=O)nc(-c2ccco2)c(C#N)c1=O (configuration not stated) | 8.63 µM | > 50 µM | 14.9 µM | > 50 µM | 21.9 µM | > 50 µM | 0.0614 µM | 7.62 µM | > 50 µM | > 50 µM | > 50 µM | > 50 µM | 23.2 µM | > 50 µM | 9.65 µM | 26.1 µM | 7.58 µM | 19.7 µM | 5.69 µM | 31.2 µM
CC1OC(O[C@H]2C[C@@H](O)[C@]3(CO)[C@H]4[C@H](O)C[C@]5(C)[C@@H](C6=CC(=O)OC6)CC[C@]5(O)[C@@H]4CC[C@]3(O)C2)C(O)C(O)C1O (some centres not stated) |  | 52.5 µM | 19.3 µM | 34 µM | 27.7 µM | 87.5 µM | 19.5 µM | 35.9 µM | 19.5 µM | 39.9 µM | 35.7 µM | > 100 µM | 20.4 µM | 41.4 µM | 27.5 µM | 75.6 µM | 24.9 µM | 51.5 µM |  | 
CN1CCN(Cc2ccc(NC(=O)c3cncc(C#Cc4cnc(N)c5ccc(C#N)cc45)c3)cc2C(F)(F)F)CC1 | 0.0803 µM | 2.05 µM | 0.0332 µM | 1.47 µM | 0.0151 µM | 0.258 µM | 0.0134 µM | 0.0943 µM | 0.915 µM | 2.03 µM | 0.211 µM | 0.986 µM | 0.357 µM | 1.37 µM | 0.0162 µM | 0.151 µM | 0.247 µM | 2.03 µM |  | 
COC(=O)CCCCN=Cc1c(O)c(O)c(C(C)C)c2cc(C)c(-c3c(C)cc4c(C(C)C)c(O)c(O)c(C=NCCCCC(=O)OC)c4c3O)c(O)c12 | 0.746 µM | 17.5 µM | 1.39 µM | > 32.5 µM | 1.23 µM | 13.5 µM | 1.47 µM | > 32.5 µM | 2.32 µM | > 32.5 µM |  |  | 0.787 µM | > 32.5 µM | 0.596 µM | 3.18 µM | 0.692 µM | 8.04 µM | 0.64 µM | 4.09 µM
CSc1ccc(C2=NN(C(C)=O)C(c3cc(C)cs3)C2)cc1 (configuration not stated) | 26.7 µM | > 100 µM | 34.6 µM | > 100 µM |  |  | 25.5 µM | 97.5 µM | 24.5 µM | > 100 µM | 44.4 µM | > 100 µM | 20.2 µM | 95.6 µM | 56.7 µM | > 100 µM | 13 µM | > 100 µM | 9.31 µM | > 100 µM
COC(=O)c1cc2c3ccccc3[nH]c2c2ncccc12 | 32.4 µM | > 100 µM | 47.1 µM | > 100 µM |  |  | > 100 µM | > 100 µM | 56.2 µM | > 100 µM | 32.3 µM | > 100 µM | > 100 µM | > 100 µM | > 100 µM | > 100 µM | 3.12 µM | > 100 µM | 75.3 µM | > 100 µM
